Tests used:
[1] = system: A549-ACE2 infected with SARS-CoV-2; assay: cell count relative to DMSO; higher = less toxic; details: 24 h
Caco-2 [2] = assay: cell viability relative to DMSO; higher = less toxic; details: 72 h
Calu-3 [3] = assay: as above; details: 72 h
HepG2 [4] = assay: as above; details: 72 h
U2OS [5] = assay: as above; details: 72 h
Vero E6 [6] = assay: as above; details: 72 h
[7] = system: A549-ACE2 infected with SARS-CoV-2; assay: SARS-CoV-2 infection rate relative to DMSO; higher = more infection; details: 24 h
A549-ACE2 [8] = assay: phospholipidosis EC50; higher = less potent phospholipidosis inducer
A549-ACE2 [9] = assay: drug-induced phospholipidosis relative to tamoxifen; higher = more phospholipidosis
[10] = system: A549-ACE2 infected with SARS-CoV-2; assay: morphology score (similarity to uninfected cells); higher = more like uninfected cells; details: 24 h
Calu-3 [11] = assay: relative viability EC50 (midpoint between 100% and the lowest measured viability); higher = less toxic; details: 72 h
HepG2 [12] = assay: as above; details: 72 h
Caco-2 [13] = assay: drug sensitivity score (DSS) for viability; higher = more toxic; extreme values may be limits of the assay; details: 72 h
Calu-3 [14] = assay: as above; details: 72 h
HepG2 [15] = assay: as above; details: 72 h
U2OS [16] = assay: as above; details: 72 h
Vero E6 [17] = assay: as above; details: 72 h

C1CCC(C(CC2CCCCN2)C2CCCCC2)CC1 (stereo not drawn) [perhexiline]
Details | SARS-CoV-2 infection rate [%] | cell count [%] | cell viability [%] | morphology score | phospholipidosis EC50 [nM]
A549-ACE2 [8], 24 h | – | – | – | – | 945
A549-ACE2 [8], 48 h | – | – | – | – | 2480
A549-ACE2 [8], 72 h | – | – | – | – | 4510
Caco-2 [2], 1 nM | – | – | 92.7 | – | –
Caco-2 [2], 10 nM | – | – | 101 | – | –
Caco-2 [2], 100 nM | – | – | 93.9 | – | –
Caco-2 [2], 1000 nM | – | – | 90.9 | – | –
Caco-2 [2], 10000 nM | – | – | 63.5 | – | –
Calu-3 [3], 1 nM | – | – | 108 | – | –
Calu-3 [3], 10 nM | – | – | 101 | – | –
Calu-3 [3], 100 nM | – | – | 92.6 | – | –
Calu-3 [3], 1000 nM | – | – | 101 | – | –
Calu-3 [3], 10000 nM | – | – | 1.9 | – | –
HepG2 [4], 1 nM | – | – | 98.9 | – | –
HepG2 [4], 10 nM | – | – | 99.5 | – | –
HepG2 [4], 100 nM | – | – | 103 | – | –
HepG2 [4], 1000 nM | – | – | 95.1 | – | –
HepG2 [4], 10000 nM | – | – | 38.6 | – | –
U2OS [5], 1 nM | – | – | 101 | – | –
U2OS [5], 10 nM | – | – | 103 | – | –
U2OS [5], 100 nM | – | – | 103 | – | –
U2OS [5], 1000 nM | – | – | 98.6 | – | –
U2OS [5], 10000 nM | – | – | 62 | – | –
Vero E6 [6], 1 nM | – | – | 106 | – | –
Vero E6 [6], 10 nM | – | – | 103 | – | –
Vero E6 [6], 100 nM | – | – | 99.5 | – | –
Vero E6 [6], 1000 nM | – | – | 95.3 | – | –
Vero E6 [6], 10000 nM | – | – | 71.1 | – | –
[1], 0.1 µM | – | 99 | – | – | –
[1], 0.3 µM | – | 96 | – | – | –
[1], 1 µM | – | 105 | – | – | –
[1], 3 µM | – | 123 | – | – | –
[7], 0.1 µM | 100 | – | – | – | –
[7], 0.3 µM | 104 | – | – | – | –
[7], 1 µM | 79 | – | – | – | –
[7], 3 µM | 36 | – | – | – | –
[10], 0.1 µM | – | – | – | -0.02 | –
[10], 0.3 µM | – | – | – | -0.25 | –
[10], 1 µM | – | – | – | 0.35 | –
[10], 3 µM | – | – | – | 0.91 | –

drug-induced phospholipidosis [%], A549-ACE2 [9]
Details | 0.3 µM | 0.833333 µM | 3.33333 µM | 6.66667 µM | 10 µM | 30 µM
24 h | 3.79 | 25.8 | 87.2 | 113 | 106 | 26.8
48 h | 4.34 | 16.1 | 84.3 | 113 | 121 | –
72 h | 5.16 | 14.3 | 68.3 | 99.9 | 120 | –

Details | drug sensitivity score | relative viability EC50 [nM]
Caco-2 [13] | 2.9 | –
Calu-3 [11] | – | 3240
Calu-3 [14] | 5.4 | –
HepG2 [12] | – | 2510
HepG2 [15] | 4.1 | –
U2OS [16] | 2 | –
Vero E6 [17] | 2 | –

Reference: the supplement of paper PMC13380429
